Data as given in the NIST ThermoML archive (doi:10.1021/acs.jced.9b00306).
Numbers after ± are expanded uncertainties. One block for each compound: values may come before it.

Details: Liquid, Ebulliometric method (Recirculating still)

vapor or sublimation pressure (456.93 K): 10 ± 1 kPa | vapor or sublimation pressure (474.79 K): 20 ± 1 kPa | vapor or sublimation pressure (525.1 K): 99 ± 1 kPa
SMILES: OCCCCCCO [1,6-hexanediol]

vapor or sublimation pressure (424.91 K): 7.79 ± 0.51 kPa | vapor or sublimation pressure (431.2 K): 10 ± 1 kPa | vapor or sublimation pressure (441.21 K): 14.56 ± 0.52 kPa | vapor or sublimation pressure (450.08 K): 20 ± 1 kPa | vapor or sublimation pressure (460.47 K): 28.55 ± 0.59 kPa | vapor or sublimation pressure (474.33 K): 44.63 ± 0.63 kPa | vapor or sublimation pressure (480.72 K): 54.37 ± 0.72 kPa | vapor or sublimation pressure (488.62 K): 68.77 ± 0.79 kPa | vapor or sublimation pressure (496.14 K): 85.45 ± 0.89 kPa | vapor or sublimation pressure (501 K): 99 ± 1 kPa | vapor or sublimation pressure (504.86 K): 108.77 ± 1 kPa | vapor or sublimation pressure (512 K): 131.95 ± 1.2 kPa | vapor or sublimation pressure (518.78 K): 157.68 ± 1.3 kPa | vapor or sublimation pressure (523.92 K): 179.21 ± 1.5 kPa | vapor or sublimation pressure (531.44 K): 216.3 ± 1.6 kPa
SMILES: COC(=O)CCCCC(=O)OC [dimethyl 1,6-hexanedioate]

vapor or sublimation pressure (337.69 K): 101.3 ± 1.6 kPa
SMILES: CO [methanol]

vapor or sublimation pressure (373.15 K): 101.3 ± 1.6 kPa
SMILES: O [water]
